36 compounds from ChEMBL document CHEMBL1201862, “PubChem BioAssay data set” (2004) can be followed below.

One may read the AC50 as the midpoint of the concentration-response curve, whichever way the signal moves. By CC50 is commonly meant the concentration at which the toxic effect on the cells reaches its halfway point.

For test [1], the target named is T1, Corticotropin-releasing factor receptor 2/Corticotropin-releasing factor-binding protein (Homo sapiens, UniProt P24387+Q13324).
T1 sequence (Q13324 whole entry): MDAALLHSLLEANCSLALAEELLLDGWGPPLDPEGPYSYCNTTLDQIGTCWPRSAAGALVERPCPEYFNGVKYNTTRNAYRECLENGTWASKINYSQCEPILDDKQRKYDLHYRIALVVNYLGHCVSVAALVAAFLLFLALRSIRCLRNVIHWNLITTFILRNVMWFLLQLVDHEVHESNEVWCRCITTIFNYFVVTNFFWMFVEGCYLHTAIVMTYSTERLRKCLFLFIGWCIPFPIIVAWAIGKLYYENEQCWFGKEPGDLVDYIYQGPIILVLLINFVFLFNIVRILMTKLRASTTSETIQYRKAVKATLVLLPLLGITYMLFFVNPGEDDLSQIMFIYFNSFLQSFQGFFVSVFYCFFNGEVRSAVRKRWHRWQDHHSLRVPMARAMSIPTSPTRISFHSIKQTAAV
T1 sequence (P24387 whole entry): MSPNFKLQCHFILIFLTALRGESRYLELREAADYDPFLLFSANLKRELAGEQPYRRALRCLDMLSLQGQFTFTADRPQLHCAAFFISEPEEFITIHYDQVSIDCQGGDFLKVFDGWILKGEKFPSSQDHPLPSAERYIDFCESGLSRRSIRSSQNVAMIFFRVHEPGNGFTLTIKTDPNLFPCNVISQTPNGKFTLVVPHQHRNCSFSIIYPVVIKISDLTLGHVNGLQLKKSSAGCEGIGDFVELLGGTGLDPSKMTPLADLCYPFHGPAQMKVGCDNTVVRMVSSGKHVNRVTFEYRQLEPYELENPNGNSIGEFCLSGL
As to the kind of experiment: activators of CRF receptor 2 with binding protein – uHTS hits, confirmation (AID 602473). The class given is functional. As to conditions: read-out: EC50_Mean.

The nature of test [2]: Shn3 3'UTR reporter inhibitors, dose response, cell-based, Clone20 osteoblasts, firefly luciferase, cherry-picked (AID 624132).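 Note: firefly luciferase luminescence from reporter carrying the Shn3 3'UTR in osteoblasts.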 Format: functional.
Test [3] in a line: control 3'UTR Renilla luciferase suppression, dose response, counter-screen for Shn3 inhibitor project, cell-based, Clone20-Shn3RL, cherry-picked (AID 624133). Format: functional. (Counterscreens check selectivity or assay interference.)
Test [4] is described as follows: HepG2 cell cytotoxicity, dose response, cytotoxicity control for Shn3 inhibitor project, CellTiter-Glo, cherry-picked (AID 624134). The class given is functional, cell-based. For orientation: Cellular ATP, detected with luciferase, serves as a proxy for viable cell number.
Test [5] concerns the target Paired box protein Pax-8 (Homo sapiens, UniProt Q06710). As to the kind of experiment: inhibitors of PAX8-driven TPO luciferase reporter, dose response, RMG-I cells, cherry-pick (AID 687027).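 Note: luciferase reporter driven by Pax8 target thyroperoxidase promoter measured by SteadyGlo luminescence.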 The class given is functional, cell-based. (Reporter assays use an easily measured gene product as a stand-in for the process of interest.)
A short description of test [6]: HEp-2 cell cytotoxicity, dose response, cytotoxicity control for RSV inhibitor project, HTS (AID 2410). Format: functional. Conditions: human respiratory syncytial virus.
A short description of test [7]: inhibitors of intracellular T. cruzi replication, confirmation, NIH3T3 host cells, beta-gal luminescence (AID 2044).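 Note: intracellular parasites grown in NIH/3T3 mouse fibroblasts as host cells; luminescent beta-galactosidase reporter signal from transgenic T. cruzi replicating inside host cells; inhibitors lower the luminescence signal.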 The class given is functional, cell-based.
Test [8] in a line: cytotoxicity toward NIH3T3 fibroblasts, dose response, counter-screen, cell-based, ATP luminescence, mouse fibroblasts (AID 2010).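 Note: cells exposed to compound for about 90 hours before reading.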 The class given is functional.
A short description of test [9]: Luminescence Cell-Based Dose Retest to Confirm Inhibitors of Cancer Stem Cells. [Related pubchem assays (depositor defined):AID2717, AID2721]. Conditions: Homo sapiens. Format: functional.
A short description of test [10]: cells. The class given is functional, cell-based.
Test [11] can be described thus: cells. Format: functional, cell-based. This is another data set of the same source.
A short description of test [12]: Luminescence Cell-Based Dose Response HTS to Identify Inhibitors of 5'UTR Stem-Loop Driven Prion Protein mRNA Translation in H4 Neuroglioblastoma Cells. [Related pubchem assays: 1827 (Project Summary), 1813 (Primary HTS)]. Format: functional.
Test [13] can be described thus: inhibitors of firefly luciferase expression or activity, dose response, H4 neuroglioma cells, luminescence (AID 1990). The class given is functional, cell-based.
Test [14] can be described thus: inhibitors of SNCA 5'UTR-driven reporter translation, confirmation, H4 neuroglioma cells, luminescence (AID 1988). Format: functional, cell-based.
For test [15], the target named is T2, Cytochrome P450 1A2 (Homo sapiens, UniProt P05177).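 Note: PubChem cytochrome P450 panel assay, CYP1A2 panel member.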
T2 sequence (P05177 whole entry): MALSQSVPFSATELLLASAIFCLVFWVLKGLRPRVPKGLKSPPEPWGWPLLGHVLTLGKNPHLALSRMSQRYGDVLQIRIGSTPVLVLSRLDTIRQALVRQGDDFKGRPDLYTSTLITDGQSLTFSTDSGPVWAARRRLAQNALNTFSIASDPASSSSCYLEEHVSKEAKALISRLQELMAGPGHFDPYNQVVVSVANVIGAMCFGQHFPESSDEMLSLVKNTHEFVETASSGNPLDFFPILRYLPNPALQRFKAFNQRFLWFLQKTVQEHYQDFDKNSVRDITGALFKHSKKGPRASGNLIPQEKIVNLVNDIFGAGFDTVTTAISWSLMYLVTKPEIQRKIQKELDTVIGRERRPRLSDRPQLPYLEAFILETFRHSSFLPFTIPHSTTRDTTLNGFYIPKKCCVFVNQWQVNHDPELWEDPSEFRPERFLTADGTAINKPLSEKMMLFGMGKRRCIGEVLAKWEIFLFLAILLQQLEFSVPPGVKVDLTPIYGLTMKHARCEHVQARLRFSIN

The subject of test [16] is INS1. As to the kind of experiment: beta cell apoptosis inhibitors, cytokine rescue, dose response, luminescence, retest (AID 449756).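 Note: cell death triggered by IL-1 beta plus TNF-alpha plus IFN-gamma mixture; protective hits raise ATP signal compared with cytokine alone wells.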 The class given is functional, cell-based. As to conditions: Rattus norvegicus.

Calls of active or inactive are those of the source. Bounds are passed on as bounds.

Sequence of Paired box protein Pax-8 (Q06710 whole entry): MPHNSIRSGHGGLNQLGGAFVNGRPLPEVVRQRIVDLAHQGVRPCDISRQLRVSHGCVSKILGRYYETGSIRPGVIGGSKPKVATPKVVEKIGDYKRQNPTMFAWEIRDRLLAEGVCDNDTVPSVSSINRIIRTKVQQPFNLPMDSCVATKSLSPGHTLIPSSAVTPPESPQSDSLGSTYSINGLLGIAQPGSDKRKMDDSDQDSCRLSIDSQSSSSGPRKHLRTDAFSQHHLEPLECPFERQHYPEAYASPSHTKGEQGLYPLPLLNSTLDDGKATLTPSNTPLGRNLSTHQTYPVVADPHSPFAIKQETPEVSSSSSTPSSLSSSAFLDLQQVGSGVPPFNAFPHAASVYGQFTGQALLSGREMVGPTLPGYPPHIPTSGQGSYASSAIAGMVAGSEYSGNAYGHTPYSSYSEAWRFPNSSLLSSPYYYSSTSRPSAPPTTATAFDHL

On to `CN(C)c1ccc(C=C2SC(=S)NC2=O)cc1`, for which the EC50 in [1] is 4.78 µM (active).
`CCc1ccc(CNCc2ccc(OCC(O)CN(C)Cc3ccccc3)cc2)nc1` (stereo not drawn): the half-maximal activity concentration (AC50) is 4.43 µM (active) in test [2], 14.2 µM (active) in test [3] and 25 µM (active) in test [4].
As to `Cc1ccc(S(=O)(=O)N(C)C[C@H]2Oc3ccc(NC(=O)Nc4ccc(C(F)(F)F)cc4)cc3CC(=O)N([C@H](C)CO)C[C@@H]2C)cc1`, the AC50 in [5] is 7.34 µM (active).
In the case of `COC(=O)[C@@]12CCCCN1[C@H](c1ccc(-c3ccc(OC)cc3)cc1)[C@@H]1C(=O)N(C)C(=O)[C@@H]12`, the CC50 in test [6] is 17.7 µM (active).
Still for that read-out and setting: under `Cc1nn(Cc2ccccc2Cl)c2sc(C(=O)NC(C)(C)C)cc12` stands > 50 µM (active); under `Cc1cccc2sc(N3CCN(C(=O)C4COc5ccccc5O4)CC3)nc12` (stereo not drawn), 25.8 µM (active).
Regarding `Cc1c(C(=O)c2cccc3ccccc23)c2cccc3c2n1[C@H](CN1CCOCC1)CO3`, the results for the EC50 in test [7] and in test [8] were 0.887 µM (active) and 55.9 µM (active), respectively. Moreover, the figures for the AC50 in test [9] and in test [5] were 3.47 µM (active) and 8.77 µM (active), respectively.
Take `O=C(COC(=O)/C(=C/c1cccs1)c1cccs1)NC(c1ccccc1)c1ccccc1`: the AC50 in test [5] is 8.36 µM (active).
For `Cn1nc(C(F)(F)F)cc1C(=O)NC1CCCCCC1`, the EC50 in test [10] and in test [11] was > 350 µM (not active) each time.
For `COc1cccc(Cn2nnc3c(O)nc(C4CCCN(C(=O)c5ccccc5Cl)C4)nc32)c1` (stereo not drawn), the EC50 in test [12], in [13] and in test [14] was > 120 µM (not active) each time. The AC50 in test [15] was 25.1 µM (inconclusive).
In the case of `CCOC(=O)Cc1csc(NC(=O)/C=C/c2ccc(Cl)cc2)n1`, in [6], the cytotoxic concentration (CC50) was 4.57 µM (active).
As to `CCn1nc(C)c(NC(=O)/C=C/c2ccc(OC)c(COc3ccc(Br)cc3)c2)c1C`, the EC50 in test [12] was 23.7 µM (active); in test [7], 2.52 µM (active); in [14] it was 13.4 µM (active); in [8], > 60 µM (not active). In test [6], the CC50 was 31.6 µM (active).
Turning to `Cc1nn(C)c(Cl)c1CN1CCCC(CO)(Cc2ccccc2)C1` (stereo not drawn), the CC50 in [6] was > 50 µM (active).
In the case of `COc1ccc(-c2csc(NC(=S)NC(=O)/C=C/c3ccco3)n2)cc1Br`, the EC50 is > 120 µM (not active) in [12], > 120 µM (not active) in test [13] and 9.94 µM (inconclusive) in test [14]. Moreover, the AC50 in test [9] is 0.47 µM (active).
For `O=C(NCCc1ccccc1)C1CCN(S(=O)(=O)c2ccc(-n3cnnn3)cc2)CC1`, the EC50 in [10] and in test [11] was > 350 µM (not active) in each case.
Regarding `CC(=O)Nc1c([N+](=O)[O-])cc(C)c(Cl)c1[N+](=O)[O-]`, the EC50 in [10] and in [11] was > 350 µM (not active) in each case.
For `C(=N\N1CCN(C(c2ccccc2)c2ccccc2)CC1)/c1ccc2c(c1)OCO2`, the EC50 in [12] was 0.672 µM (active); in [13] it was > 120 µM (not active); in test [14] it was > 120 µM (not active).
For `CCCCNc1nc2c(c(=O)n(C)c(=O)n2C)n1Cc1cccc(OC)c1`, the values for the AC50 in [2], in test [3] and in [4] were 0.284 µM (active), 1.13 µM (active) and 3.87 µM (active), respectively.
Take `O=C(NS(=O)(=O)c1ccc2c(c1)OCCO2)c1ccccc1`: the EC50 in test [10] and in test [11] was > 350 µM (not active) throughout.
Consider `CC(C)(C)OC(=O)NCc1ccc(NC(=O)c2[nH]cnc2C(=O)NCCCCNC(=O)c2nc[nH]c2C(=O)Nc2ccc(CNC(=O)OC(C)(C)C)cc2)cc1`, for which the half-maximal activity concentration (AC50) in test [16] was 3.36 µM (active); in test [9] it was 1.73 µM (active).
Regarding `Cc1cc(Sc2ccc([N+](=O)[O-])cn2)ccc1Br`, the AC50 in test [3] is 31.4 µM (active); in test [4], > 70 µM (inactive).
With `COc1ccc(-c2nc(-c3ccc(NC(=O)c4ccncc4)cc3)no2)cc1OC`, the AC50 is 2.36 µM (active) in test [2], 3.85 µM (active) in test [3] and 4.96 µM (active) in test [4].
On to `CCN(CC)c1ccc(NC(=O)CSc2nc(O)c3c(C)cc(C)nc3n2)cc1`, for which the EC50 in [10] and in [11] was > 350 µM (not active) throughout.
Turning to `CNc1nc(N/N=C/c2cc3c(cc2[N+](=O)[O-])OCO3)nc(Nc2ccccc2)n1`, the EC50 in [12] was 9.97 µM (active); in [7] it was 2.42 µM (active); in [13], 9.21 µM (active); in test [14] it was 12.7 µM (active); in test [8], > 60 µM (inconclusive). Besides, the AC50 in [16] is 13.2 µM (active).
`CC(NC(=O)c1cc(COc2ccc3ncccc3c2)on1)c1ccc(F)cc1` (stereo not drawn): the AC50 is 2.28 µM (active) in test [2], 4.52 µM (active) in test [16], 2.2 µM (active) in [3] and 2.86 µM (active) in test [4].
As for `C[C@@H]1CCCCO[C@@H](CN(C)Cc2ccc(C(F)(F)F)cc2)[C@H](C)CN([C@@H](C)CO)C(=O)c2cc(NS(=O)(=O)c3ccc(Cl)cc3)ccc2O1`, the AC50 in test [5] was 9.89 µM (active).
Consider `CCOC(=O)C1CCN(C(=O)C2CCCN(c3ncnc4c3nc3n4CCCCC3)C2)CC1` (stereo not drawn), for which the EC50 in test [10] and in test [11] was > 350 µM (not active) each time.
`CCOc1ccc(-c2nnc(N3CCCCC3)c3ccccc23)cc1`: the values for the AC50 in [2], in test [3] and in [4] were 14.9 µM (active), 8.24 µM (active) and > 70 µM (inactive), respectively.
As to `O=C(c1ccc(-c2ccc(Cl)cc2)o1)N1CCN(c2ccc([N+](=O)[O-])cc2Cl)CC1`, the CC50 in test [6] was 9.46 µM (active). Besides, the AC50 in test [16] was 3.58 µM (active).
For the compound `Cn1c(SCc2ccc(F)cc2Cl)nc2ccccc2c1=O`, the AC50 in test [2] was 8.65 µM (active); in test [3], 3.09 µM (active); in [4], 8.38 µM (active).
Take `Cc1ccc(OCc2nnc(SCC(=O)Nc3cccc4ccccc34)n2-c2ccccc2)cc1`: the EC50 in test [12], in test [13] and in test [14] was > 120 µM (not active) each time.
Regarding `O=C1N/C(=C/c2cccs2)C(=O)N1Cc1ccc(Br)cc1`, the EC50 in test [10] and in [11] was > 350 µM (not active) in each case.
For `CN(C#N)c1nccc(-c2cccs2)n1`, the CC50 in [6] was 23.8 µM (active).
Consider `O=C(NCCc1csc(-c2cccc(F)c2)n1)c1ccco1`, for which the EC50 in test [10] and in test [11] was > 350 µM (not active) throughout.
With `Fc1cnc(N/N=C/c2ccc(-c3ccc(Br)cc3)o2)nc1N1CCOCC1`, the CC50 in test [6] was 6.89 µM (active).
Regarding `Cc1oc(=O)c(NC(=O)c2ccc(Cl)cc2)cc1C(=O)c1ccccc1`, the AC50 in test [2] was 32.1 µM (active); in test [4], > 70 µM (inactive).
